Measurements reported in doi:10.1101/2025.03.14.643404, “A Bivalent Molecular Glue Linking Lysine Acetyltransferases to Oncogene-induced Cell Death” (bioRxiv, 2025).
pIC50: −log10 of the molar value.

Columns and labels:
BCL6^BTB = target: T1, BCL6^BTB (Homo sapiens, UniProt P41182); assay: BCL6BTB nanoBRET probe displacement in HEK293T; assay type: cell-based; details: compared with TCIP3
T1 construct: human BCL6 (Uniprot: P41182; aa1–129); expressed in transfected cells; host or cells: HEK293T
Experimental: The construct for NanoLuciferase(NanoLuc)-tagged BCL6^BTB was created as follows in a lentiviral construct: an N-terminal NanoLuc (subcloned from pNLSF-1, Promega N1351) was fused to the BTB domain of human BCL6 (Uniprot: P41182; aa1–129) with an internal GSG linker followed by a V5 tag. HEK293T cells were plated at a density of 6×10^5 cells/mL in 2 mL of DMEM/well in a tissue culture treated 6-well plate and were allowed to incubate overnight at 37 °C. The next day, each well of cells was transfected with 2 ug of NanoLuc-BCL6^BTB (renamed pNSG218) using Lipofectamine 2000. The transfected cells were allowed to incubate overnight at 37 °C. The following day, the transfected cells were trypsizined, washed with PBS, counted with Trypan Blue, and brought to a final concentration of 1.25×10^5 cells/mL in Fluorobrite DMEM (Gibco A1896701) supplemented with 10% FBS. 1 uM TNL-15 probe was added to the cells before plating 5000 cells per well in a volume of 40 uL per well in a 384-well plate. […] Data was then obtained using a PheraStar FS plate reader (BMG Labtech) measuring luminescence with 520-BP and 450-BP filters. […]
For all NanoBRET assays, a dose-response curve with 3 technical replicates was constructed for each compound, and corrected BRET ratios were calculated according to manufacturer assay protocol (Promega TM439). […]

SUDHL5 cells [1] = assay: Global proteome profiling in SUDHL5, whole proteome; assay type: cell-based, human; details: SUDHL5, 10 nM, 6 and 24 hours
Experimental: SUDHL5 cells (6M cells in 6 mL RPMI-1640 media supplemented with 10% FBS and 1x pen-strep) were treated with 0.1% DMSO, 10 nM TCIP3, 10 nM Neg1, 10 nM Neg2, or 250 nM dCBP1 (1000x stocks in DMSO for final 0.1% DMSO concentration) in 3 biologically independent replicates. The cells were washed twice with TBS (50 mM Tris, pH 8.5, and 150 mM NaCl) and then stored at −80 °C until use.
Lysis was performed by first thermally denaturing the samples in residual wash buffer for 5 min at 95 °C. Fresh Lysis Buffer (8 M urea, 150 mM NaCl, and 100 mM HEPES, pH 8.0, in MS-grade water) was then added, and the lysates were homogenized using needle ultrasonication and then normalized to 30 μg of 2 mg/mL by diluting with Lysis Buffer via a Bradford protein concentration assay (Bio-Rad 5000006) in technical duplicates. […]
Samples were then desalted using SOLAμ SPE HRP Peptide Desalting columns (Thermo 60209–001) with a Positive Pressure Manifold and all MS-grade reagents. […] The samples were then reconstituted in 0.1% FA in water and then analyzed by LC-MS/MS (see below).
The reconstituted desalted peptides were then analyzed using a nanoElute 2 UHPLC (Bruker Daltonics, Bremen, Germany) coupled to a timsTOF HT (Bruker Daltonics, Bremen, Germany) via a CaptiveSpray nano-electrospray source. […]

[2] = test system: BCL6-repressed GFP reporter; assay: BCL6 reporter assay (BCL6-repressed GFP) in K422 cells; assay type: cell-based, human; details: 24 h
Experimental: KARPAS422 cells were lentivirally transduced with a construct containing the reporter. Description of the reporter construct has been published previously. After selection, cells were plated and treated with indicated amount of compound for 24 hours. Cells were washed in 2.5% FBS/PBS, stained with 1:250 v/v of 7-AAD (BD 559925) to distinguish live from dead cells, and harvested for flow cytometry on a BD Accuri. Given the polyclonal population after transduction, the area under the curve of the histogram representing FITC signal across all live cells was calculated as an integrative measure of total GFP signal. A GFP-positive gate two standard deviations from the mean was drawn from non-transduced cells and the area past a constant threshold was calculated and normalized to the signal from cells treated with DMSO.

c-MYC mRNA = assay: RT-qPCR of c-MYC transcripts in SUDHL5; assay type: cell-based, human; details: for c-MYC repression compared with TCIP3: SUDHL5, matched concentrations, transcript or proteomic level; for effect of competitor co-treatment on c-MYC mRNA repression by TCIP3: SUDHL5, 10 nM TCIP3 plus 500 nM inhibitor, 1 h
Experimental: Cells were plated at 1M/mL and harvested in TRIsure (Bioline 38033). RNA was extracted using Direct-zol RNA MicroPrep columns (Zymo R2062) treated with DNAseI. cDNA was prepared (Meridian Bioscience BIO-65054) and used for qPCR (Meridian Bioscience BIO-94050) using an AppliedBiosystems QuantStudio 6Pro. Primer sequences were the following:
• c-MYC fwd: […]; • c-MYC rev: […]; • GAPDH fwd: […]; • GAPDH rev: […].

SUDHL5 cells [3] = assay: Cell viability, 72 h compound treatment (PrestoBlue), SUDHL5; assay type: cell-based, human; details: for effect of inhibitor co-treatment on TCIP3 cell killing: SUDHL5, constant 1 nM TCIP3 plus titrated inhibitor, 72 h
Experimental: Thirty thousand cells were seeded in 100 μl of media per well of a 96-well plate and treated with drug for the indicated times and doses. A resazurin-based indicator of cell health (PrestoBlue; P50200, Thermo Fisher) was added for 1.5 h at 37°C, at which point the fluorescence ratio at 560/590 nm was recorded (Tecan Spark). The background fluorescence was subtracted, and the signal was normalized to DMSO-treated cells. IC50 measurements on cell lines were calculated using at least three biological replicates (separate cell passages). Fit of dose–response curves to data and statistical analysis was performed using GraphPad PRISM using the four-parameter log(inhibitor) vs response function.

p300^Q1083A = p300^Q1083A (Homo sapiens, UniProt P41182+Q09472, Q1082A); assay: TR-FRET binary displacement assay, p300 Q1083A bromodomain; assay type: binding; details: α = Kd binary/Kd ternary
Experimental: (§1) Drugs were digitally dispensed (Tecan D300e) into protein-containing wells, and the plate was allowed to incubate in the dark for 1 hour at room temperature. Emission at 490 nm (terbium) and 520 nm (FITC) was measured on a PHERAstar FS plate reader (BMG Labtech) upon excitation with 337 nm. The ratio of signal at 520 nm to 490 nm was calculated and normalized to DMSO-treated protein.

p300^Q1083R = p300^Q1083R (Homo sapiens, UniProt P41182+Q09472, Q1082R); assay: TR-FRET binary displacement assay, p300 Q1083R bromodomain; assay type: binding; details: α = Kd binary/Kd ternary
Experimental: as §1

Row | cellular binding to BCL6 BTB (BCL6^BTB) | pIC50 (SUDHL5 cells [3]; Homo sapiens, SU-DHL-5, SUDHL5, 72 h, read-out: IC50 cell viability / antiproliferation) | cooperativity α (p300^Q1083A) | cooperativity α (p300^Q1083R) | Compound | proteome changes relative to DMSO (SUDHL5 cells [1]) | activation of GFP expression [2] | c-MYC repression compared with TCIP3 (c-MYC mRNA) | effect of competitor co-treatment on c-MYC mRNA repression by TCIP3 (c-MYC mRNA) | effect of inhibitor co-treatment on TCIP3 cell killing (SUDHL5 cells [3])
1 | potent binders | 5.68 |  |  | CNC(=O)COc1cc2cc(Nc3nc(N4CCC(C(=O)N5CCN(CCC(=O)N6CCC(n7nc(N8CCCc9cc(-c%10cnn(C)c%10)c(C(F)F)cc98)c8c7CCN(C(=O)c7ccccc7)C8)CC6)CC5)CC4)ncc3Cl)cc(OC)c2n(C)c1=O [NEG2] | no significant changes relative to DMSO | Neither NEG1 nor NEG2 activated GFP expression | Neither GNE-781, dCBP-1, NEG1, NEG2, nor the BCL6^BTB inhibitor BI-3812 produced comparable c-MYC repression |  | 
2 |  |  | ~ 0.88 | ~ 1.0 | CNC(=O)N1CCc2c(c(N3CCCc4cc(-c5cnn(C)c5)c(C(F)F)cc43)nn2C2CCOCC2)C1 [GNE-781] |  |  | Neither GNE-781, dCBP-1, NEG1, NEG2, nor the BCL6^BTB inhibitor BI-3812 produced comparable c-MYC repression | restored c-MYC levels to those observed with GNE-781 treatment alone | buffered the effects of TCIP3 on cell viability
3 |  |  |  |  | CNC(=O)COc1cc2cc(Nc3nc(N4CCC(C(=O)N(C)C)CC4)ncc3Cl)cc(OC)c2n(C)c1=O [BI-3812] |  |  | Neither GNE-781, dCBP-1, NEG1, NEG2, nor the BCL6^BTB inhibitor BI-3812 produced comparable c-MYC repression | almost completely restored c-MYC levels to baseline | buffered the effects of TCIP3 on cell viability
